One assay addresses human CYP11B2 (Homo sapiens (Human), UniProt P19099). Nature of the assay: V79-Human-CYP11B2 cell assay, modified protocol. It counts as cell-based. The following applies: V79 cells expressing human CYP11B2. The procedure: (§1) V79 cell lines stably expressing the either the human CYP11B2 or the human CYP11B1 enzyme were generated using a standard transfection protocol. V79 cells were transfected with plasmids pTriEx3-Hygro-hCyp11B2 or pTriEx3-Hygro-hCyp11B1 using Lipofectamine2000 reagent. V79 cells that stably express the human CYP11B2 or human CYP11B1 enzyme were selected for and maintained in DMEM supplemented with 10% FBS and 400 μg/mL hygromycin for 2 weeks. Single cell clones were generated by infinite dilution in DMEM supplemented with 10% FBS and 400 μg/mL hygromycin until single colonies were obtained. […] For testing of inhibitors, cells were harvested at 80% confluency with 0.05% Trypsan-EDTA, washed once in PBS, and reconstituted in DMEM+0.1% BSA media at a cell concentration of 600,000 cells/mL for the CYP11B2 assay and 280,000 cells/mL for the CYP11B1 assay. 25 μL of cells were added to a 384 well tissue culture treated plate and mixed with 0.3 μL of inhibitor or DMSO (1% final DMSO concentration) for 1 hour at 37° C., 5% CO2. After pre-incubation with inhibitor, the reaction was initiated by adding 5 μL of substrate (final concentration of 125 nM 11-deoxycorticosterone for the CYP11B2 assay or 250 nM 11-deoxycortisol for the CYP11B1 assay). The reaction was carried out for 3 hours at 37° C., 5% CO2 and was stopped by harvesting the supernatants. The amount of product in the supernatant (aldosterone for CYP11B2 assay and cortisol for the CYP11B1 assay) was measured using HTRF-based assay kit (Aldosterone HTRF-CisBio#64ALDPEB, Cortisol HTRF-CisBio #63IDC002-CORT). IC50s for the inhibitor were determined by plotting the amount of product formed against the concentration of inhibitor using sigmoidal dose-response curve (variable slope) fit in GraphPad.
(§2) For the CYP11B2 assay, cells were reconstituted in DMEM+0.1% BSA media at a cell concentration of 600,000 cells/mL and for the CYP11B1 assay cells were reconstituted in DMEM+0.1% BSA media at a cell concentration of 280,000 cells/mL. 25 μl of cells were added to a 384 well tissue culture treated plate and mixed with […] or DMSO (1% final DMSO concentration) for 1 hour at 37° C., 5% CO2.

The target of another assay is human CYP11B1 (Homo sapiens (Human), UniProt P15538). Nature of the assay: V79-Human-CYP11B1 cell assay, modified protocol. Type of assay: cell-based. Particulars: V79 cells expressing human CYP11B1. The procedure:
as §1, §2

Some results are limits rather than exact numbers.

Chain of human CYP11B2 (P19099 25-503): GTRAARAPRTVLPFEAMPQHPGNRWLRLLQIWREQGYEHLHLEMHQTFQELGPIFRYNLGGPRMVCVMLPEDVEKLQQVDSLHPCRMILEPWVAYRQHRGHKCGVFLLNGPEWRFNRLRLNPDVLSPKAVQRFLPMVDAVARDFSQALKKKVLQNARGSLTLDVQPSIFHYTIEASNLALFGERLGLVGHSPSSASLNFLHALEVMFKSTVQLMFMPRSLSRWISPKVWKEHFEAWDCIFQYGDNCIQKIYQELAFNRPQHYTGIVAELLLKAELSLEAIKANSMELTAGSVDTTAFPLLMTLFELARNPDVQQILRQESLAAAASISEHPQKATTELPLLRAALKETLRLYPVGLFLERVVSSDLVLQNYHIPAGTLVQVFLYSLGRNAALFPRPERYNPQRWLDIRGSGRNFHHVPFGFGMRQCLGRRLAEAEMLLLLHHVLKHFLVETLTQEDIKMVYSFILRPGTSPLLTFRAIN
Chain of human CYP11B1 (P15538 25-503): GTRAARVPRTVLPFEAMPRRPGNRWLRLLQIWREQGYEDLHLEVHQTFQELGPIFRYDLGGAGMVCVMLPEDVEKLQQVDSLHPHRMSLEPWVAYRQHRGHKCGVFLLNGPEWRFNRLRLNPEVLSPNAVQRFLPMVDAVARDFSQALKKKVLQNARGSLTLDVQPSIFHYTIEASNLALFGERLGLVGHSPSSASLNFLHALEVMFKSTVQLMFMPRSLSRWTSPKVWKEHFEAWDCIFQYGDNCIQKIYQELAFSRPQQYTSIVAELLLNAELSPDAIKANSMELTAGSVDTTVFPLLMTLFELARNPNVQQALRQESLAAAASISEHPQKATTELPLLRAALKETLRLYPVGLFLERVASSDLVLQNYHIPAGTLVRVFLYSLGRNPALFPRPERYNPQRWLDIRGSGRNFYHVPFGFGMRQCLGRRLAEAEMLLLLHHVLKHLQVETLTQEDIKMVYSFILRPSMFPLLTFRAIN

Take `O=C(Cc1ccccc1)N1CCc2cc(-c3cccnc3)ccc21` [Example 26, 1-(Phenylacetyl)-5-pyridin-3-yl-2,3-dihydro-1H-indole]: the IC50 against human CYP11B2 is 3070 nM; on human CYP11B1, > 5000 nM.

Consider `CCC(=O)N1CCc2cc(-c3cncc4ccccc34)ccc21` [Example 29, 4-(1-propanoyl-2,3-dihydro-1H-indol-5-yl)isoquinoline], for which the figures for the 50% inhibitory concentration (IC50) against human CYP11B2 and against human CYP11B1 were 2.8 nM and 516 nM, respectively.

For the compound `O=C(C1CC1)N1CCc2cc(-c3cncc4ccccc34)ccc21` [Example 31, 4-[1-(cyclopropyl-carbonyl)-2,3-dihydro-1H-indol-5-yl]isoquinoline], the half-maximal inhibitory concentration (IC50) was determined as 152 nM against human CYP11B2 and 6090 nM at human CYP11B1.

For the compound `CC(=S)N1CCc2cc(-c3cccnc3)ccc21` [Example 34, 1-(5-(pyridin-3-yl)indolin-1-yl)ethanethione], the IC50 at human CYP11B2 worked out at 6 nM; on human CYP11B1, 3380 nM.

As for `CC(=O)n1ccc2cc(-c3cccnc3)ccc21` [Example 50, 1-Acetyl-5-pyridin-3-yl-1H-indole], the results for the IC50 on human CYP11B2 and at human CYP11B1 were 23 nM and 1380 nM, respectively.

As to `COc1cncc(-c2ccc3c(c2)CCN3C(C)=O)c1` [Example 54, 1-acetyl-5-(5-methoxypyridin-3-yl)-2,3-dihydro-1H-indole], the IC50 amounted to 16 nM against human CYP11B2 and 803 nM against human CYP11B1.

As for `CC(=O)N1CCc2cc(-c3cnccc3C)ccc21` [Example 58, 1-acetyl-5-(4-methylpyridin-3-yl)-2,3-dihydro-1H-indole], the IC50 was 2.2 nM against human CYP11B2 and 366 nM at human CYP11B1.

Usually IC50 stands for the concentration at which inhibition is half-maximal. Higher therefore signals weaker potency in that assay.

The record behind these values is patent publication US9745282B2, “Indoline compounds as aldosterone synthase inhibitors” (Merck Sharp & Dohme Corp., priority 2012, dated 2017).
